Test results published in paper PMC12671080, “Antimicrobial activities of quaternary phosphonium-type small molecular antibacterial materials against methicillin-resistant Staphylococcus aureus” (Microbiology Spectrum, 2025).
Where two headings read alike, the source gives them in different places.

What was measured:
[1] = test system: Escherichia coli (E. coli, ATCC 25922); assay: MIC test, modified broth microdilution; format: cell-based; settings: read-out: Minimal inhibitory concentration (MIC) against E. coli
Procedure: (§1) All bacteria cells were first pre-grown overnight on blood agar plates at 37°C in a bacteriological incubator. Next, a single colony was transferred into fresh Muller Hinton broth (MHB) medium and harvested by centrifugation during the exponential growth phase, before being resuspended in sterile 0.9% physiological saline. Finally, bacterial cells were adjusted to the 0.5 McFarland standard (1.5 × 10^8 CFU/mL), and the solution was diluted in MHB to the predetermined concentrations.
(§2) MICs of all materials against MRSA, E. coli, and P. aeruginosa strains were determined using a modified broth microdilution method ([28]). Briefly, log-phase cultures (1.0 × 10⁶ CFU/mL) of each strain were inoculated into 96-well microtiter plates preloaded with serially diluted test compounds.

MRSA (ATCC 43300) = assay: MIC test, modified broth microdilution; format: cell-based; settings: Staphylococcus aureus, 24 h
Procedure: as §1, §2

[2] = Cytotoxicity assay (CCK-8); settings: mouse
Procedure: (§3) The cytotoxicity of the nanocomposite was evaluated by CCK-8 assay using a commercial kit (CK04; Dojindo, Japan). […] Cell viability was calculated according to the following formula: cell viability (%) = (Ae − Ab)/(Ac − Ab) × 100% (Ab:OD of blank wells at 450 nm, Ac:OD of control wells at 450 nm, Ae:OD of experimental wells at 450 nm).

[3] = test system: Pseudomonas aeruginosa (P. aeruginosa, ATCC 27853); assay: MIC test, modified broth microdilution; format: cell-based; settings: ATCC27853, 24 h
Procedure: as §1, §2

MRSA [4] = assay: Reactive oxygen species assay (DCFH-DA); format: cell-based, Staphylococcus aureus; settings: 0.5 h
Procedure: The level of bacterial ROS induced by [PTPP]·I was detected by DCFH-DA assay (Reactive Oxygen Species Assay Kit, S0033S, Beyotime), as previously reported ([18]). Briefly, MRSA (1 × 10^8 CFU/mL) was inoculated with 10 µM of DCFH-DA in a centrifuge tube at 37°C for 30 min for probe loading. […] The bacterial solution without [PTPP]·I was included to use as a control. The samples were washed three times with sterile saline solution (0.9% NaCl). Finally, the level of bacterial total ROS was measured as the relative fluorescence intensity of the probes, which was detected in a Multi-mode detection platform (Molecular Devices, SpectraMax i3x) in fluorescence mode with excitation at 488 nm and emission at 525 nm.

MRSA [5] = assay: Bacterial growth curve study (OD600); format: cell-based, Staphylococcus aureus
Procedure: Bacterial growth curve of [PTPP]·I against MRSA cells was determined by the method reported previously ([29]). […] The bacterial solution without [PTPP]·I was used as a positive control. OD values were continuously measured for 36 h at hourly intervals to construct bacterial growth curves.

MRSA [6] = assay: SEM of bacterial morphology and bacterial biofilm; format: cell-based, Staphylococcus aureus; settings: 24 h
Procedure: Scanning electron microscopy was used to observe bacterial morphology and bacterial biofilm formation. […] Samples were then washed with PBS and dehydrated in a graded ethanol series (30%, 50%, 70%, 80%, 90%, 95%, and 100%). After lyophilization and gold spraying, the MRSA cells were visualized by SEM (SU8100, Hitachi, Tokyo, Japan). Bacterial biofilms were subjected to SEM as previously reported with slight modifications ([31]). Cell crawling pieces were incubated in 1 mL of MRSA solution (1 × 10^6 CFU/mL) in a 24-well plate. […] After 24 h of incubation at 37°C, the samples were processed as described above and the MRSA biofilms on the cell crawling pieces were observed by scanning electron microscopy.

MRSA biofilm [7] = assay: Resazurin staining, metabolic activity of bacteria within biofilms; format: cell-based, Staphylococcus aureus; settings: 24 h
Procedure: The metabolic activity of bacteria within biofilms was tested using resazurin (Sigma Aldrich, St. Louis, MO, USA), as previous report with slightly modified ([33]). Bacterial suspensions were exposed to graded concentrations (range 4–32 μg/mL) of [PTPP]·I in MHB broth for 24 h at 37°C. After incubation, the wells were washed three times with PBS and 0.01% final concentration of resazurin (Sigma Aldrich, St. Louis, MO, USA) was added, followed by an incubation for 1 h. Finally, the absorbance was detected in a Multi-mode detection platform (Molecular Devices, SpectraMax i3x) in fluorescence mode with excitation at 570 nm and emission at 600 nm. Bacterial suspensions without [PTPP]·I were set as a positive control, and pure MHB broth was set as a blank control, which were taken as 100% and 0% metabolic activity, respectively. Metabolic activity was calculated according to the following formula: metabolic activity (%) = (ΔAbs of sample − ΔAbs of blank control)/(ΔAbs of positive control − ΔAbs of blank control); ΔAbs = absorbance at 570 nm − absorbance at 600 nm.

MRSA [8] = assay: Protein leakage assay (Bradford); format: cell-based, Staphylococcus aureus; settings: 32 µg/mL (2 × MIC), 24 h
Procedure: The quantitative detection of protein leakage of bacteria was carried out by protein leakage assay using a Bradford Protein Assay Kit (P0006; Beyotime, Nantong, China). […] The bacterial solution without [PTPP]·I was used as a control. The mixture was incubated in a shaker at 37°C for 24 h and then centrifuged at 10,000 rpm at 4°C for 10 min. The supernatant was immediately collected, and protein detection reagent was added to determine the optical density (OD 600) using a Microplate Reader (Thermo Fisher Scientific, Multiskan GO) and finally converted to protein concentration values based on the standard curve.

MRSA [9] = assay: Agar diffusion test; format: cell-based, Staphylococcus aureus; settings: 10 µL of 512 µg/mL on 6.0 mm disc, overnight 37°C
Procedure: Bacterial suspensions (1.5 × 10^8 CFU/mL) were spread onto Mueller-Hinton (M-H) agar plates using sterile cotton swabs to form a uniform carpet. A 10 µL solution of each of the five nanomaterials at a concentration of 512 µg/mL, along with PBS, was carefully applied to the surface of filter paper discs (6.0 mm in diameter), which were then placed onto M-H agar plates and incubated overnight at 37°C. Inhibition zones appeared as transparent halos on the agar surface.

L929 cells = assay: Cytotoxicity assay (CCK-8); settings: at the concentration of MIC, 24 h, CCK-8
Procedure: as §3

MRSA biofilm [10] = assay: Crystal violet staining of biofilm formation; format: cell-based, Staphylococcus aureus; settings: 24 h
Procedure: Crystal violet staining was performed by the method reported previously to measure the anti-biofilm effect of [PTPP]·I ([32]). […] A parallel study was also performed with LB broth as a blank control and the MRSA suspension was cultured in an empty well as a positive control. After incubation, the non-adhered bacteria were removed by gently washing with PBS at least three times, and the adherent biofilm was fixed with methanol for 15 min and stained with 0.1% (wt/vol) crystal violet for another 15 min. Then the excess crystal violet was removed by repeatedly washing with PBS until the blank control wells were colorless. Finally, crystal violet bound to the biofilm was dissolved in 500 µL 95% ethanol and added into 96-well plates to measure the absorbance at 595 nm using a Microplate Reader (Thermo Fisher Scientific, Waltham, MA, USA).

MRSA [11] = assay: Time-kill kinetics assay (colony counting); format: cell-based, Staphylococcus aureus
Procedure: The bactericidal kinetics assay was carried out with a few minor modifications as previously stated to reveal the antimicrobial effectiveness of [PTPP]·I over time ([30]). […] Bacteria were sampled every 1 h from 0 h to 6 h, diluted in a gradient, and incubated in Luria-Bertani (LB) plates at 37°C for 24 h. Finally, plates with around 30 to 300 colonies were counted and CFU/mL for each time point was calculated to construct time-kill curves. After 3 h of treatment with different concentrations of [PTPP]·I, the bacterial solution was put into PBS for several consecutive 10-fold dilutions, and 100 µL of the mixture was uniformly spread on LB agar plates and then allowed to dry for a little while. The LB agar plates were placed in a constant-temperature incubator at 37°C for 24 h, and then the colonies on the LB agar plates were counted and photographed to observe the changes in the morphology and size of MRSA colonies.

[12] = ATCC25922, broth microdilution, 37°C, 24 h
[13] = broth microdilution, 37°C, read-out: Minimal inhibitory concentration (MIC) against MRSA
[14] = L929 cells, Cell viability of L929 cells, at the concentration of MIC, 24 h, CCK-8

## CCCC[P+](c1ccccc1)(c1ccccc1)c1ccccc1 [[BTPP]·I, n-butyl-triphenyl-phosphonium iodide]
[1]; [12]
  MIC: ≤ 512 µg/mL
MRSA (ATCC 43300); [13]
  MIC: ≤ 32 µg/mL
[2]; [14]
  viability at 24 h: ~95%

## CC[P+](c1ccccc1)(c1ccccc1)c1ccccc1 [[ETPP]·I, ethyl-triphenyl-phosphonium iodide]
[1]; [12]
  MIC: ≤ 512 µg/mL
[3]; broth microdilution, 37°C, 24 h, read-out: Minimal inhibitory concentration (MIC) against P. aeruginosa
  MIC: 8000 µg/mL
MRSA (ATCC 43300); [13]
  MIC: ≤ 64 µg/mL
[2]; [14]
  viability at 24 h: ~90%

## CC(C)[P+](c1ccccc1)(c1ccccc1)c1ccccc1 [[ITPP]·I, i-propyl-triphenyl-phosphonium iodide]
[1]; [12]
  MIC: ≤ 512 µg/mL
MRSA (ATCC 43300); [13]
  MIC: ≤ 64 µg/mL
[2]; [14]
  viability at 24 h: ~95%

## C[P+](c1ccccc1)(c1ccccc1)c1ccccc1 [[MTPP]·I, methyl-triphenyl-phosphonium iodide]
[1]; ATCC25922, 24 h
  MIC: ≤ 512 µg/mL
[3]; read-out: Minimal inhibitory concentration (MIC) against P. aeruginosa, broth microdilution, 37°C, 24 h
  MIC: 8000 µg/mL
MRSA (ATCC 43300); read-out: Minimal inhibitory concentration (MIC) against MRSA, broth microdilution, 37°C, 24 h
  MIC: 128 µg/mL
[2]
  viability at 24 h: ~90%

## CCCCC[P+](c1ccccc1)(c1ccccc1)c1ccccc1 [[PTPP]·I, n-pentyl-triphenyl-phosphonium iodide]
MRSA [4]; 1 × MIC
  ROS level elevation vs the control group: 20%
MRSA [4]; 2 × MIC
  ROS level elevation vs the control group: 30%
MRSA [4]; 4 × MIC
  ROS level elevation vs the control group: 141%
MRSA [5]; 2 µg/mL (1/8 × MIC) to 16 µg/mL (1 × MIC)
  Bacterial growth (OD600): significantly inhibited
MRSA [5]; at 1/2 × MIC
  Lag phase of MRSA growth: up to 10 h
MRSA [6]; 16 µg/ml (1 × MIC)
  Biofilm on cell crawling pieces by SEM: no biofilm but only the residue of bacterial disruption
MRSA [6]; 32 µg/mL (2 × MIC)
  Bacterial morphology by SEM: membranes/walls of MRSA cells became rough and concave, holes appeared
MRSA biofilm [7]; 1/2 × MIC
  Metabolic activity of biofilm bacteria, of positive control: more than 50%
MRSA biofilm [7]; 1 × MIC
  Metabolic activity of intra-film bacteria, of positive control: 1%
MRSA [8]
  Protein leakage relative to control group: about 2.6 times
MRSA [9]
  Inhibition halos against MRSA: obvious inhibition halos
[1]; [12]
  MIC: ≤ 512 µg/mL
MRSA (ATCC 43300); [13]
  MIC: 16 µg/mL
[2]; [14]
  viability at 24 h: > 97%
L929 cells
  Cell viability of L929 cells: 97%
MRSA biofilm [10]; 1/2 × MIC
  Reduction of biofilm biomass: 35.4%
MRSA biofilm [10]; 1 × MIC
  Reduction of biofilm biomass (biofilm inhibition rate): 96.6%
MRSA [11]; 1 × MIC
  Time to achieve survival rate less than 1%: 6 h
MRSA [11]; 1 × MIC, within 1 h
  Reduction of viable count: approximately 1 log10 CFU/mL
MRSA [11]; 4 × MIC for 2 h
  Survival rate: less than 1%
